Source: patent US7452997B2 (priority 2004, dated 2008)
Read-outs that look alike come from different tables or passages of the source.

What was measured:
human CB1 receptor [1] = target: T1, human CB1 receptor (Homo sapiens, UniProt P21554); assay: biochemical; format: binding
T1 construct: expressed in transfected cells; host or cells: SK-N-MC cells, stably transfected with pcDNA3 CB-1 (human); semi-purified membrane pellet
Summary of the method: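 Radioligand binding was run at 30° C for 90 minutes, pH 7.5 Tris buffer containing 0.5 mg/mL fatty acid free BSA, on semi-purified membranes of stably transfected SK-N-MC cells. Filter-bound radioactivity was scintillation counted, with IC50 obtained by linear regression across compound concentrations.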

human CB1 receptor [2] = target: T1, human CB1 receptor; assay: Functional cell-based assay, CB1 receptor mediated change in CRE β-gal expression (agonist / inverse agonist)
Description: (§1) Functional Cell-Based Assay for CB1 or CB2 Agonist and Inverse Agonist Effects on Intra-Cellular Adenylate Cyclase Activity
(§2) The CB1 and CB2 receptors are G-protein coupled receptors (GPCR) which influence cell function via the Gi-protein. These receptors modulate the activity of intracellular adenylate cyclase which in turn produces the intracellular signal messenger cyclic-AMP (cAMP).
(§3) At baseline, or during non-ligand bound conditions, these receptors are constitutively active and tonically suppress adenylate cyclase activity. The binding of an agonists causes further receptor activation and produces additional suppression of adenylate cyclase activity. The binding of an inverse agonist inhibits the constitutive activity of the receptors and results in an increase in adenylate cyclase activity.
(§4) By monitoring intracellular adenylate cyclase activity, the ability of compounds to act as agonists or inverse agonists can be determined.
(§5) Test compounds were evaluated in SK-N-MC cells which, using standard transfection procedures, were stably transfected with human cDNA for pcDNA3-CRE β-gal and pcDNA3 CB1 receptor (human) or pcDNA3 CB2 receptor (human). By expressing CRE β-gal, the cells produced β-galactosidase in response to CRE promoter activation by cAMP. Cells expressing CRE β-gal and either the human CB1 or CB2 receptor will produce less β-galactosidase when treated with a CB1/CB2 agonist and will produce more β-galactosidase when treated with a CB1/CB2 inverse agonist.
(§6) The cells were grown in 96-well plates under standard cell culture conditions at 37° C. in a 5% CO2 atmosphere. After 3 days, the media was removed and a test compound in media (wherein the media was supplemented with 2 mM L-glutamine, […] sodium pyruvate, 0.1% low fatty acid FBS (fetal bovine serum) and antibiotics) was added to the cell. The plates were incubated for 30 minutes at 37° C. and the plate cells were then treated with forskolin over a 4-6 hour period, then washed and lysed. The β-galactosidase activity was quantitated using commercially available kit reagents (Promega Corp. Madison, Wis.) and a VMAX Plate Reader (Molecular Devices, Inc).
(§7) The change in β-galactosidase activity was determined by setting a vehicle treated cell's activity value at 100% and expressing the β-galactosidase activity measured in a corresponding compound treated cell as a percent of the vehicle treated cell activity.
(§8) The EC50 values for compounds tested were calculated by linear regression and were obtained from studies in which varying compound concentrations were used.

human CB2 receptor [3] = target: T2, human CB2 receptor (Homo sapiens, UniProt P34972); assay: Binding assay, cannabinoid CB2 receptor ([3H]-CP-55,940 displacement); details: Cannabinoid CB2 Receptor Binding IC50, human CB2 receptor, SK-N-MC cell membranes, radioligand CP-55,940 0.2 nM
T2 sequence (P34972 whole entry): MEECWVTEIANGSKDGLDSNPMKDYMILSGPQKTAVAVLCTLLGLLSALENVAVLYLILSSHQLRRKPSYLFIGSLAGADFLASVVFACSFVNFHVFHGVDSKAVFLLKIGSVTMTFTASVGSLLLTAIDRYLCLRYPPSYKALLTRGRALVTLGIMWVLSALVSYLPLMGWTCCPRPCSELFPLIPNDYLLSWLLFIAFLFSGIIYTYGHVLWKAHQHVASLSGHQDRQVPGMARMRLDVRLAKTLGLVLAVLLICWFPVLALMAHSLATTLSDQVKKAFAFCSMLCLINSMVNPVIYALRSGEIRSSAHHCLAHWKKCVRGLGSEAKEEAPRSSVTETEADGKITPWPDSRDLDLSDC
Summary of the method: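 Displacement of [3H]-CP-55,940 (0.2 nM) was measured over 90 min at 30 °C (pH 7.5 Tris/MgCl2/EDTA buffer with BSA), using semi-purified membranes of human CB2-transfected SK-N-MC cells. Bound counts collected on GF/C filters, 10 uM WIN 55,212 as nonspecific control; IC50 from varied concentrations.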

human CB2 receptor [4] = target: T2, human CB2 receptor; assay: Functional cell-based assay, CB2 receptor mediated change in CRE β-gal expression (agonist / inverse agonist); details: SK-N-MC cells, forskolin
Description: as §1, §2, §3, §4, §5, §6
For cells expressing CRE β-gal and the CB2 receptor, CB2 agonists reduced β-galactosidase activity in a dose-dependent manner and CB2 inverse agonists increased β-galactosidase activity in a dose-dependent manner.
as §7, §8

[5] = inverse agonist, read-out: CB2 Receptor Functional Inverse Agonist EC50
[6] = agonist, read-out: CB2 Receptor Functional Agonist EC50

T1 sequence (P21554 whole entry): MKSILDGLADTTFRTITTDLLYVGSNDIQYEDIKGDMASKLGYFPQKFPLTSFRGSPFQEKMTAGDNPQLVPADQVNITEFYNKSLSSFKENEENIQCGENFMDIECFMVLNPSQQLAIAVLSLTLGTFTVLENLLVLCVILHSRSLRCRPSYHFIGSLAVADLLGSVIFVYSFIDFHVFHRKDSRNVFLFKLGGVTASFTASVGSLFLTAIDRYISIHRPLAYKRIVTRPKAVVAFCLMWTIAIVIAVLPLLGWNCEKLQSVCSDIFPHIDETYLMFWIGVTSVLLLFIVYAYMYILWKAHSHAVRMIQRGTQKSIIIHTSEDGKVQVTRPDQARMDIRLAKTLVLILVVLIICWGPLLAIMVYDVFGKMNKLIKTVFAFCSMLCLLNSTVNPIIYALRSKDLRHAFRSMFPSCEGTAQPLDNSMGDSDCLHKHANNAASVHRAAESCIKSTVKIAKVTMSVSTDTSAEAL

SMILES	IC50 (human CB1 receptor [1]) [nM]	EC50 (human CB1 receptor [2]) [nM]	IC50 (human CB2 receptor [3]) [nM]	EC50 (human CB2 receptor [4]; [5]) [nM]	EC50 (human CB2 receptor [4]; [6]) [nM]	EC50 (human CB1 receptor [2]; SK-N-MC cells, CRE β-gal, human CB1 receptor, forskolin, inverse agonist, read-out: CB1 Receptor Functional Inverse Agonist EC50) [nM]
C[C@H](NC(=O)c1nn(-c2ccc(Cl)cc2Cl)c2c1CCCC2=Cc1ccc(F)cc1)C1CCCCC1 [compound 309]	47	81	–	–	–	–
CCOC(=O)[C@H]1CCc2c(c(C(=O)NC3C4CC5CC(C4)CC3C5)nn2C2CCCCC2)C1 (stereo partly drawn) [Cpd 208, (5S)-3-(adamantan-2-ylcarbamoyl)-1-cyclohexyl-4,5,6,7-tetrahydro-1H-indazole-5-carboxylic acid ethyl ester]	660	–	14	8.6	–	–
CC12CCC(C1)C(C)(C)C2NC(=O)c1nn(-c2ccc(F)cc2)c2c1CCCC2 (stereo not shown) [compound 10]	45	–	6	–	1.9	–
CCOC(=O)[C@@H]1C2CCC(C2)[C@@H]1NC(=O)c1nn(C2CCCCC2)c2c1CCCC2 (stereo partly shown) [compound 278]	403	–	37.5	–	0.78	–
CCOC(=O)C1CCc2nn(-c3ccccc3)c(C(=O)NC34CC5CC(CC(C5)C3)C4)c2C1 (stereo not shown) [compound 91]	–	3370	–	–	–	–
CC(=O)OC1CCc2c(c(C(=O)NC3C4(C)CCC(C4)C3(C)C)nn2C2CCCCC2)C1 (stereo not shown) [compound 94]	1780	–	20	–	25	–
C[C@@H](NC(=O)c1nn(C2CCCCC2)c2c1CCCC2)C12CC3CC(CC(C3)C1)C2 [compound 212]	260	–	74	–	3.7	–
O=C(NC1C2CC3CC(C2)CC1C3)c1nn(C2CCCCC2)c2c1CCCC2Cl (stereo not shown) [compound 62]	280	–	5	–	0.57	–
CCOC(=O)[C@H]1C2CCC(C2)[C@H]1NC(=O)c1nn(-c2ccc(F)cc2)c2c1CCCC2CCc1ccccc1 (stereo partly shown) [compound 154]	60	–	370	–	9	–
COC(=O)[C@H]1CCc2c(c(C(=O)NC3C4CC5CC(C4)CC3C5)nn2C2CCCCC2)C1 (stereo partly shown) [compound 218]	400	–	3	6	–	–
COc1cccc(C2CCCc3c(C(=O)N[C@H](CCl)c4ccccc4)nn(-c4ccc(Cl)cc4Cl)c32)c1 (stereo partly drawn) [Cpd 316, 1-(2,4-dichloro-phenyl)-7-(3-methoxy-phenyl)-4,5,6,7-tetrahydro-1H-indazole-3-carboxylic acid [(1S)-2-chloro-1-phenyl-ethyl]-amide]	–	46	–	–	–	–
CC(NC(=O)c1nn(C2CCCCC2)c2c1CCCC2)C12CC3CC(CC(C3)C1)C2 (stereo not shown) [compound 26]	723	–	15	–	11	–
CCOC(=O)[C@@H]1CCc2c(c(C(=O)NC3C4CC5CC(C4)CC3C5)nn2Cc2ccccc2)C1 (stereo partly shown) [compound 211]	5	–	0.7	16	–	–
CCOC(=O)[C@@H]1CCc2c(c(C(=O)NC3C4CC5CC(C4)CC3C5)nn2C2CCCCC2)C1 (stereo partly drawn) [Cpd 209, (5R)-3-(adamantan-2-ylcarbamoyl)-1-cyclohexyl-4,5,6,7-tetrahydro-1H-indazole-5-carboxylic acid ethyl ester]	260	–	200	74	–	–
C[C@@H](NC(=O)c1nn(-c2ccc(Cl)cc2Cl)c2c1CCC/C2=C\c1ccc(Cl)cc1)c1ccccc1 [compound 307]	–	100	–	–	–	–
CC(NS(=O)(=O)C=Cc1nn(-c2ccc(F)cc2)c2c1CCCC2CCc1ccccc1)C1CCCCC1 (stereo not shown) [Cpd 259, 2-[1-(4-fluoro-phenyl)-7-phenethyl-4,5,6,7-tetrahydro-1H-indazol-3-yl]-ethenesulfonic acid (1-cyclohexyl-ethyl)-amide]	–	–	–	–	–	610
CC(NS(=O)(=O)C=Cc1nn(-c2ccc(F)cc2)c2c1CCCC2CCc1ccccc1)c1ccccc1 (stereo not shown) [Cpd 258, 2-[1-(4-fluoro-phenyl)-7-phenethyl-4,5,6,7-tetrahydro-1H-indazol-3-yl]-ethenesulfonic acid (1-phenyl-ethyl)-amide]	–	480	–	–	–	–
CCOC(=O)C1CCc2c(c(C(=O)NC3C4(C)CCC(C4)C3(C)C)nn2Cc2ccccc2)C1 (stereo not shown) [compound 149]	67	–	8	7.9	–	–
C[C@@H](NC(=O)c1nn(C2CCCCC2)c2c1CCCC2)C1CCCCC1 [compound 195]	100	–	20	–	5.5	–
COc1cccc(C2CCCc3c(C(=O)N[C@H](C)c4ccccc4)nn(-c4ccc(Cl)cc4Cl)c32)c1 (stereo partly shown) [compound 312]	–	36	–	–	–	–

SMILES	IC50 (human CB1 receptor [1]) [nM]	EC50 (human CB1 receptor [2]) [nM]	IC50 (human CB2 receptor [3]) [nM]	EC50 (human CB2 receptor [4]; [5]) [nM]	EC50 (human CB2 receptor [4]; [6]) [nM]	EC50 (human CB1 receptor [2]; SK-N-MC cells, CRE β-gal, human CB1 receptor, forskolin, inverse agonist, read-out: CB1 Receptor Functional Inverse Agonist EC50) [nM]
CCOC(=O)[C@@H]1CCc2c(c(C(=O)NC(C)C34CC5CC(CC(C5)C3)C4)nn2C2CCCCC2)C1 (stereo partly shown) [compound 214]	1230	–	15.3	120	–	–
CC(NC(=O)c1nn(C2CCCCC2)c2c1CCCC2)C1CCCCC1 (stereo not shown) [compound 184]	50	–	20	–	100	–
CC12CCC(C1)C(C)(C)C2NC(=O)c1nn(-c2cccc(F)c2)c2c1CCCC2 (stereo not shown) [compound 18]	91.8	–	3.6	–	2.7	–
O=C(NN1CCCCCC1)c1nn(C2CCCCC2)c2c1CCCC2 [compound 37]	69.3	–	112	–	10	–
CC1CCCc2c(C(=O)NC3C4(C)CCC(C4)C3(C)C)nn(-c3ccc(F)cc3)c21 (stereo not shown) [compound 13]	108	–	6.5	–	4.1	–
O=C(NN1CCCCCC1)c1nn(-c2ccc(F)cc2)c2c1CCCC2 [compound 35]	700	–	94	–	35	–
O=C(NC1C2CCC(C2)C1CO)c1nn(C2CCCCC2)c2c1CCCC2 (stereo not shown) [compound 40]	1440	–	215	–	31	–
CC(NC(=O)c1nn(CC2CCCCC2)c2c1CCCC2)C12CC3CC(CC(C3)C1)C2 (stereo not shown) [compound 123]	7.5	–	4.6	–	7.5	–
O=C(NCC12CC3CC(CC(C3)C1)C2)c1nn(C2CCCCC2)c2c1CCCC2 [compound 32]	20	–	6.9	–	47	–
O=C(NC12CC3CC(CC(C3)C1)C2)c1nn(C2CCCCC2)c2c1CCCC2 [compound 44]	79	–	2.4	–	29	–
CC12CCC(C1)C(C)(C)[C@H]2NC(=O)c1nn(C2CCCCC2)c2c1CCCC2 (stereo partly shown) [compound 207]	82.4	–	1.6	–	10	–
CC12CCC(C1)C(C)(C)C2NC(=O)c1nn(-c2ccccc2)c2c1CCCC2 (stereo not shown) [compound 1]	377	–	13.5	–	15	–
CCOC(=O)C1CCc2c(C(=O)N[C@H](C)C3CCCCC3)nn(C3CCCCC3)c2C1 (stereo partly shown) [compound 284]	350	–	45	360	–	–
CCOC(=O)C1CCc2c(C(=O)NC34CC5CC(CC3C5)C4)nn(Cc3ccccc3)c2C1 (stereo not shown) [compound 157]	30	–	2	1.5	–	–
CC12CCC(C1)C(C)(C)[C@@H]2NC(=O)c1nn(Cc2ccccc2)c2c1CCCC2 (stereo partly shown) [compound 217]	2.6	–	0.1	–	0.052	–
O=C(NC1C2CC3CC(C2)CC1C3)c1nn(CC2CCCCC2)c2c1CCCC2 (stereo not shown) [compound 122]	4	–	1.5	–	37	–
CC(C)OC(=O)C1CCc2c(c(C(=O)NC3C4CC5CC(C4)CC3C5)nn2C2CCCCC2)C1 (stereo not shown) [compound 232]	2400	–	30	360	–	–
O=C(NCc1ccccn1)c1nn(-c2ccc(Cl)cc2Cl)c2c1CCCC2=Cc1ccc(Cl)cc1 [compound 319]	–	50	–	–	–	–
CC(NC(=O)c1nn(-c2ccc(F)cc2)c2c1CCCC2c1ccccc1)C12CC3CC(CC(C3)C1)C2 (stereo not shown) [compound 146]	–	1520	–	–	–	–
